Inconclusive results are not listed. Activity calls are given as the source filed them.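 How the source made its calls: active means Green signal of the normal strain falls at least twice as much as red signal of the resistant mutant, with overall culture growth loss under a set limit; inconclusive means no clear call, values can overlap the other calls; inactive means the rest.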
Tested on: E. coli WT ribosome GFP fluorescence, mixed culture, 24 h
Assay: wild-type E. coli growth inhibition versus h38 humanized strain – h38 mutant RFP, wild-type GFP, cherry-pick, dose response (AID 977622)
[1] = E. coli mixed culture, 24 h, measured here: total growth OD600

Structure (SMILES) | AC50 | AC50 [1]
N#Cc1cccc(-c2ccc3c(c2)[C@H]2[C@H](CCN2C(=O)c2ccccc2F)[C@H](CO)N3)c1 | > 100 µM (inactive) | –
CC(=O)OC(COc1cccc(C)c1)Cn1cnc2ccccc21 (configuration not stated) | > 100 µM (inactive) | 50.7 µM
O=C(Cc1ccc(Br)cc1)Nc1cccc(-c2cn3c(n2)SCC3)c1 | > 100 µM (inactive) | > 100 µM
O=C(Nc1cccc(S(=O)(=O)N2CCCCC2)c1)c1ccc(Cl)nc1 | > 100 µM (inactive) | –
C[C@@H]1CN([C@@H](C)CO)C(=O)c2cc(NC(=O)C3CC3)ccc2O[C@H]1CN(C)C(=O)Nc1ccc(C(F)(F)F)cc1 | > 100 µM (inactive) | –
Cc1ccc(S(=O)(=O)N2CC[C@H]3[C@H](CO)Nc4ccc(Br)cc4[C@H]32)cc1 | > 100 µM (inactive) | 29.1 µM
CCOC(=O)c1sc(NC(=O)CN2CCN(c3ccccc3)CC2)nc1C | > 100 µM (inactive) | –
Cc1nnc2sc(SCC(=O)Nc3ccc(Br)cc3)nn2c1=O | > 100 µM (inactive) | > 100 µM
CC[N+](CC)(CC#Cc1ccccc1)CC#Cc1ccccc1 | > 100 µM (inactive) | > 100 µM
COc1ccc(CN2CCC3CC2c2cc(Cl)ccc23)cc1 (configuration not stated) | – | > 100 µM
COc1ccc(OC)c(N(CC(=O)Nc2ccccc2F)S(=O)(=O)c2ccccc2)c1 | > 100 µM (inactive) | –
COc1ccc(C(=O)N(c2ccccc2)c2nccc3ccccc23)cc1OC | > 100 µM (inactive) | –
NS(=O)(=O)c1cc(C(=O)OCC(=O)Nc2ccccc2[N+](=O)[O-])ccc1Cl | – | > 100 µM
Cc1cccc(CN2C(=O)c3ccccc3Sc3ccc(C(=O)O)cc32)c1 | – | > 100 µM
Cc1cc(C(=O)NCCC2=CCCCC2)ccc1[N+](=O)[O-] | > 100 µM (inactive) | > 100 µM
O=C(Nc1cccc(Cl)c1)N1C[C@@H]2[C@H](c3ccccc31)[C@@H](CO)N2CC1CCCCC1 | > 100 µM (inactive) | 50 µM
Cc1nn2c(NCc3ccccn3)cc(C(C)C)nc2c1-c1ccccc1 | > 100 µM (inactive) | –
CCc1nn2cc(C(=O)c3cc(Cl)ccc3O)cnc2c1-c1ccc(F)cc1 | > 100 µM (inactive) | > 100 µM
CCCCNC(=O)C[C@@H]1C[C@@]2(C(=O)OC)CCCCC=C2N(Cc2ccccc2)C1=O | > 100 µM (inactive) | > 100 µM
O=S(=O)(NCc1ccc2c(c1)OCO2)c1ccc2c(c1)oc1ccccc12 | > 100 µM (inactive) | 40.8 µM
O=C(NCCc1ccc(O)cc1)c1[nH]c(C(F)(F)F)nc1-c1ccccc1 | > 100 µM (inactive) | > 100 µM
Cn1cnc(CCNC(=O)C[C@H]2CC[C@@H]3[C@H](COC[C@H](O)CN3C(=O)Nc3ccc(Cl)cc3)O2)c1 | > 100 µM (inactive) | –

Structure (SMILES) | AC50 | AC50 [1]
CCOC(=O)c1c(CS(=O)(=O)c2ccccc2)n(C)c2cc(Br)c(O)cc12 | > 100 µM (inactive) | –
CNC(=O)c1ccsc1NC(=O)c1ccc(S(=O)(=O)N2CCc3ccccc32)cc1 | – | > 100 µM
COc1cc2c(c(OC)c1OC)C(c1ccc3c(c1)OCO3)CC(=O)O2 (configuration not stated) | – | > 100 µM
O=C(CCNC(=O)c1ccco1)Nc1cccc(Br)c1 | > 100 µM (inactive) | > 100 µM
S=C1SCN(Cc2cccnc2)CN1Cc1ccccc1 | > 100 µM (inactive) | –
CCSc1nc2ccccc2c(=O)n1Cc1ccc(F)cc1 | > 100 µM (inactive) | –
COc1ccccc1NS(=O)(=O)c1cc(C(=O)Nc2ccc(S(=O)(=O)Nc3onc(C)c3C)cc2)ccc1C | > 100 µM (inactive) | –
Cc1ccc(N(CC(O)Cn2nc(C)cc2C)S(=O)(=O)c2ccc3ccccc3c2)cc1 (configuration not stated) | > 100 µM (inactive) | 43.1 µM
CCN(c1ccccc1)S(=O)(=O)c1ccc(Cl)c(NC(=O)CSc2n[nH]c(N)n2)c1 | > 100 µM (inactive) | > 100 µM
O=C(CN(CCO)c1ccccc1)Nc1cccc(S(=O)(=O)N2CCCC2)c1 | > 100 µM (inactive) | –
O=C(Cc1cccc(NC(=O)C2CCCN(C(=O)CCc3ccccc3)C2)c1)Nc1cccc(C(=O)N2CCCC2)c1 (configuration not stated) | > 100 µM (inactive) | –
Clc1ccc(-c2nc3ccc(Br)cn3c2Cc2ccsc2)cc1 | > 100 µM (inactive) | 35 µM
CN(Cc1ccc([N+](=O)[O-])cc1)c1ccccc1 | – | > 100 µM
CC(Nc1ncnc2ccccc12)c1ccccc1 (configuration not stated) | > 100 µM (inactive) | > 100 µM
COc1ccc(NC(=O)CSc2n[nH]c(-c3ccncc3)n2)c([N+](=O)[O-])c1 | > 100 µM (inactive) | > 100 µM
COc1ccc(C#Cc2ccc([C@H]3[C@@H](CO)N4CCCCN(C(=O)Nc5cccc(F)c5)C[C@H]34)cc2)cc1 | – | > 100 µM
O=C(NCc1ccc2c(c1)OCO2)C1CCCN1S(=O)(=O)c1ccc(Cl)cc1 (configuration not stated) | > 100 µM (inactive) | –
COC(=O)c1c(NC(=O)c2ccccc2C(=O)O)sc2c1CCC2 | > 100 µM (inactive) | –
COc1cccc(NC(=O)N(C)C[C@H]2Oc3ncc(C#Cc4cccnc4)cc3C(=O)N([C@H](C)CO)C[C@H]2C)c1 | – | > 100 µM
Cc1ccc(CNS(=O)(=O)c2ccc3c(c2)NC(=O)CS3)cc1 | > 100 µM (inactive) | 41 µM
O=C(C[C@H]1CC[C@@H]2[C@H](COC[C@@H](O)CN2C(=O)Nc2cc(Cl)cc(Cl)c2)O1)N1CCOCC1 | > 100 µM (inactive) | –
c1ccc(-c2nc3c4ccccc4ccn3c2CN2CCOCC2)cc1 | > 100 µM (inactive) | –

Structure (SMILES) | AC50 | AC50 [1]
CC(C)(CC(=O)O)CC(=O)NCc1c(Cl)cccc1Sc1ccc(Cl)cc1 | – | > 100 µM
O=C(O)c1ccc(-c2nc(-c3ccccc3)cs2)cc1 | > 100 µM (inactive) | –
c1cc2cc(-c3c(-c4ccc5c(c4)OCO5)noc3-c3ccsc3)ccc2[nH]1 | > 100 µM (inactive) | –
Cc1ccsc1C(=O)N1CCCC(C(=O)c2cc(F)ccc2F)C1 (configuration not stated) | > 100 µM (inactive) | > 100 µM
Cc1ccc2oc(C(=O)N(CCO)Cc3ccccc3)c(C)c2c1 | > 100 µM (inactive) | 37.1 µM
Cc1ccccc1-n1ncc2c1CC(C)(C)CC2NC(=O)CCN1Cc2ccccc2C1=O (configuration not stated) | > 100 µM (inactive) | > 100 µM
COc1ccc(-c2csc(NC(=O)c3ccoc3C)n2)cc1 | > 100 µM (inactive) | > 100 µM
Cc1ccc(C(=O)c2coc3cc([N+](=O)[O-])c(O)c([N+](=O)[O-])c23)cc1 | > 100 µM (inactive) | 21.5 µM
Clc1ccc(-c2cn(-c3ccccc3)c3[n+]2CCS3)cc1 | > 100 µM (inactive) | –
CCN(CC)c1nc(Oc2ccc(C(=O)OC)cc2)nc(N2CCOCC2)n1 | – | > 100 µM
Cc1nc(C)c(-c2ccn(S(=O)(=O)c3ccc(Cl)cc3)n2)o1 | > 100 µM (inactive) | –
COc1ccccc1Cn1c(=S)[nH]c2ccccc2c1=O | > 100 µM (inactive) | 42.1 µM
Cc1noc(NS(=O)(=O)c2ccc(NC(=O)c3cc(-c4ccccc4Cl)nc4ccccc34)cc2)c1C | > 100 µM (inactive) | –
Cc1ccc(Nc2cc(C(=O)NCCCN3CCOCC3)c3ccccc3n2)cc1C | > 100 µM (inactive) | > 100 µM
Cc1ccsc1C(=O)OCC(=O)N1CCc2ccccc2C1 | > 100 µM (inactive) | > 100 µM
O=C(CC(=O)c1cccs1)c1ccncc1 | > 100 µM (inactive) | > 100 µM
Cc1ccc(-c2c[n+](CC(=O)OCc3ccccc3)c3n2CCC3)cc1 | > 100 µM (inactive) | –
COC(=O)C[C@H]1C[C@@H]2c3cc(NC(=O)Nc4ccc(C(F)(F)F)cc4)ccc3O[C@@H]2[C@H](CO)O1 | > 100 µM (inactive) | > 100 µM
Fc1ccc(Br)cc1SCCc1ccncc1 | – | > 100 µM
Cc1ccc(C(=O)Nc2ccc(C)c(S(=O)(=O)Nc3ccccc3Cl)c2)s1 | > 100 µM (inactive) | 43.1 µM
NS(=O)(=O)c1cccc(NC(=O)c2cccc(-c3ccc(O)cc3)c2)c1 | > 100 µM (inactive) | 50.2 µM
Cc1cccc(S(=O)(=O)Nc2ccc(-c3cn4ccccc4n3)cc2)c1 | > 100 µM (inactive) | 26.7 µM

Structure (SMILES) | AC50 | AC50 [1]
Cc1n[nH]c(C)c1S(=O)(=O)N1CCCC(C(=O)Nc2ccc(Br)cc2)C1 (configuration not stated) | – | > 100 µM
Cn1cc(CN2CCCC(C(=O)Nc3cccc(-c4cc5ccccc5[nH]4)c3)C2)cn1 (configuration not stated) | – | > 100 µM
COc1ccc(CC(=O)NCc2csc(-c3cccs3)n2)cc1OC | – | > 100 µM
COc1ccc(CC(=O)Nc2nc(-c3cc(OC)ccc3OC)cs2)cc1 | > 100 µM (inactive) | 8.91 µM
CC(C)(C)C1CCC(OCC(O)CN2CCN(c3ccccn3)CC2)CC1 (configuration not stated) | > 100 µM (inactive) | 44.7 µM
O=C(O)c1ccc(Oc2ccc([N+](=O)[O-])cc2)c([N+](=O)[O-])c1 | > 100 µM (inactive) | –
O=C(Nc1cccc(O)c1)c1cc(-c2ccccc2Cl)on1 | > 100 µM (inactive) | –
O=[N+]([O-])c1ccc(N2CCOCC2)c2c1no[n+]2[O-] | > 100 µM (inactive) | > 100 µM
CCOc1ccc(OCCn2c(=S)[nH]c3c(N)ncnc32)cc1 | > 100 µM (inactive) | 39 µM
O=C(COC(=O)C1CC2C=CC1C2)Nc1ccc([N+](=O)[O-])cc1 (configuration not stated) | – | > 100 µM
CCCN(CC1CC1)C(=O)CSc1ncnc2sccc12 | > 100 µM (inactive) | –
CC(C)Oc1ccc(C(CC(=O)O)NC(=O)C(Sc2ccccc2)c2ccccc2)cc1 (configuration not stated) | > 100 µM (inactive) | > 100 µM
CCOc1ccccc1N1CC(C(=O)Nc2cccc(S(=O)(=O)N3CCCCC3)c2)CC1=O (configuration not stated) | – | > 100 µM
CS(=O)(=O)N1CC2CCCN2c2ccc(C(F)(F)F)cc21 (configuration not stated) | – | > 100 µM
O=C(NCCCn1ccnc1)c1sc2cc([N+](=O)[O-])ccc2c1Cl | – | > 100 µM
O=C(O)c1cc(-c2cccs2)nn1-c1cccc(Cl)c1 | > 100 µM (inactive) | –
CCN(C(=O)c1ccnc(C(C)(C)C)c1)c1ccccc1 | > 100 µM (inactive) | –
O=C(NCc1cccnc1)C1CCN(S(=O)(=O)c2cc([N+](=O)[O-])ccc2Cl)CC1 | > 100 µM (inactive) | –
Cc1c(Cc2ccccc2)sc(NC(=O)Cc2ccccc2)c1C(N)=O | > 100 µM (inactive) | –
COC(=O)c1ccc(OS(=O)(=O)c2ccc(NC(C)=O)cc2)cc1 | > 100 µM (inactive) | –
